Where two headings read alike, the source gives them in different places.

The subject of assay [1] is PC-14 human non-small cell lung cancer cell line. The assay is described as follows: MTT cell growth inhibition by anticancer drug with or without compound 1, PC-14. Type of assay: cell-based. Particulars: read-out: 50% cell growth inhibiting concentration (IC50) of anticancer drug. The method, then:
(§1) PC-14 as a human non-small cell lung cancer cell line and PC-14/CDDP as a cisplatin tolerant cell line thereof were used to examine an effect of overcoming each resistance to cisplatin, carboplatin, nedaplatin and taxol. PC-14 and PC-14/CDDP were made into a single cell in BPMI 1640 medium by trypsinization or by using a cell scraper, and prepared a cell suspension of 100 cells per 15 μl. The compound 1 dissolved in dimethyl sulfoxide was added therein to make final concentration of 10 μm, and then the resulting liquid was poured into a 96-perforated plate at 150 μl per well. An anticancer drug was dissolved in sterilized distilled water. The resulting liquid of 150 μl per well was poured into the first row to transfer in turn from the second row to the next rows by 150 μl for each raw so as to form two-fold dilution rows. A group without the cells was prepared as a negative control, and a group without the anticancer drug and the compound I was prepared as a positive control. After culturing at 37° C. under carbon dioxide having a concentration of 5% and saturated vapor for 96 hours, an MTT [3-(4,5-dimethylthiazol-2-yl)-2,5-diphenyltetrazolium bromide] reagent of 20 μl dissolved in D-PBS (−) at a concentration of 5 mg/ml was added to each of the groups, and the resulting liquid was cultured for another 4 hours at 37° C. After the completion of the culture, the entire plate was centrifuged, and the supernatant was removed. Dimethyl sulfoxide of 200 μl was added to dissolve formazan crystal generated by enzyme activities of mitochondria in the cells. Then, absorbed light of 562–630 nm was determined by using a multiplate reader. Given that the average growth rate of the negative control is 0% and the average growth rate of the positive control is 100%, a dose-growth curve was plotted to calculate […] cell growth inhibiting concentration (IC50).

In assay [2] the test system is PC-14/CDDP cisplatin tolerant cell line. The assay is described as follows: MTT cell growth inhibition by anticancer drug with or without compound 1, PC-14/CDDP. The format is cell-based, human. Particulars: for IC50: PC-14/CDDP, MTT, read-out: 50% cell growth inhibiting concentration (IC50) of anticancer drug. How it is done: as §1
Assay [3] concerns KCP-4 cell isolated from human nasopharyngeal cancer KB cells. The note with it: KCP-4 cisplatin-resistance cell; cited from earlier work.
In another assay the test system is PC-14/CDDP tumor. The assay is described as follows: Tumor growth in nude mice implanted with PC-14/CDDP. Type of assay: in vivo, nude mice BALB/c nu/nu. Particulars: for lowest T/C / Tumor growth rate GR: PC-14/CDDP; for Tumor growth rate GR: 11th. How it is done:
(§2) Female nude mice BALB/c nu/nu (6-week-old) were implanted subcutaneously in each back with 2×10^7 of PC-14/CDDP and the parental cell line PC-14 suspended in physiological saline, then the progress of tumor were observed. On the 7th day from the implantation, tumor condition was checked to select and randomize testable individuals not to cause any deviation, and the selected mice were then divided into a control group and a test group. After each tumor volume was determined based on the formula: (tumor short diameter)^2×(tumor long diameter), administration of drug was started on the seventh day.
(§3) The compound 1 was used as a test compound, 1.2 mg of which was dissolved in 0.05 ml of dimethyl sulfoxide, and then combined with 0.95 ml of 5% sorbitol-0.2% citric acid 1 hydrate solution (pH3.3) to make uniform solution.
(§4) Cisplatin was used as an anticancer drug, and was dissolved in distilled water to prepare 1.6 mg/ml solution.
(§5) The administration process is carried out by simultaneous intravenous injections of 0.05 ml of the test compound and 0.05 ml of the anticancer-drug solution once a day on the 7th, 11th, 15th day after the tumor implantation. For the control group, 0.1 ml of physiological saline was administered by intravenous injection, and for the group to be administered only the anticancer drug, 0.05 ml of the anticancer-drug solution and 0.05 ml of physiological saline were administered by intravenous injection. One dose of the test compound was 3 mg/kg, and one dose of the anticancer drug was 4 mg/kg. During the administration of the drug, physical status of the whole body of the mice was observed, and the weight and the long/short lengths of tumor were measured. Tumor growth rate (GR) and effect of inhibiting cancer (lowest T/C) were calculated based on the following formulas, respectively. [formula] [formula]

The subject of the next assay is PC-14 tumor. The assay is described as follows: Tumor growth in nude mice implanted with PC-14. Particulars: for Tumor growth rate GR: 11th. Type of assay: in vivo, nude mice BALB/c nu/nu. How it is done:
as §2, §3, §4, §5

The subject of assay [4] is GB-1 human glioblastoma cell and U87-GM cell. The note with it: GB-1 cell and U87-GM cell; cited from earlier work.
Assay [5] deals with B16a cell and B16a-Pt cell line. The note with it: B16a cell and cisplatin-resistant B16a-Pt cell line; cited from earlier work.
The subject of assay [6] is K562 human promyelocytic leukemia cell line. As to the kind of experiment: MTT cell growth inhibition by adriamycin with or without compound 1, K562. The format is cell-based. The method, then: PC-14 as a human non-small cell lung cancer cell line and PC-14/CDDP as a cisplatin tolerant cell line thereof were used to examine an effect of overcoming each resistance to cisplatin, carboplatin, nedaplatin and taxol. PC-14 and PC-14/CDDP were made into a single cell in BPMI 1640 medium by trypsinization or by using a cell scraper, and prepared a cell suspension of 100 cells per 15 μl. The compound 1 dissolved in dimethyl sulfoxide was added therein to make final concentration of 10 μm, and then the resulting liquid was poured into a 96-perforated plate at 150 μl per well. An anticancer drug was dissolved in sterilized distilled water. The resulting liquid of 150 μl per well was poured into the first row to transfer in turn from the second row to the next rows by 150 μl for each raw so as to form two-fold dilution rows. A group without the cells was prepared as a negative control, and a group without the anticancer drug and the compound I was prepared as a positive control. […] Then, absorbed light of 562–630 nm was determined by using a multiplate reader. […]

Assay [7] has as its system K562/ADM adriamycin resistant cell line. The assay is described as follows: MTT cell growth inhibition by adriamycin with or without compound 1, K562/ADM. The format is cell-based, human. Particulars: for IC50: Homo sapiens, K562, K562/ADM, read-out: 50% cell growth inhibiting concentration (IC50) of adriamycin. How it is done: as §1
K562 as a human […] cell line and K562/ADM as an adriamycin resistant cell line thereof were used to examine the effect of overcoming the resistance to adriamycin. […]

Where [8] appears, read: PC-14, with compound 1 (final concentration 10 μm), 96 hours.
[9] abbreviates: PC-14, without compound 1, 96 hours.
[10] abbreviates: with compound 1 (final concentration 10 μm), 96 hours.

In the case of `CC(=O)O[C@H]1C(=O)[C@@]2(C)[C@H]([C@H](OC(=O)c3ccccc3)[C@]3(O)C[C@H](OC(=O)[C@H](O)[C@@H](NC(=O)c4ccccc4)c4ccccc4)C(C)=C1C3(C)C)[C@]1(OC(C)=O)CO[C@@H]1C[C@@H]2O` [taxol], the IC50 turned out to be 0.000663 µM in [1] (Homo sapiens, PC-14, 96 h, PC-14, with compound 1 (final concentration 10 μm), 96 hours); 0.00113 µM in assay [1] (Homo sapiens, PC-14, 96 h, PC-14, without compound 1, 96 hours); 1.73 µM in assay [2] (Homo sapiens, PC-14, 96 h, with compound 1 (final concentration 10 μm), 96 hours); 5.29 µM in [2] (Homo sapiens, PC-14, 96 h, without compound 1, 96 hours).

Consider `N.N.[Cl][Pt][Cl]` [cisplatin], for which the “resistance of KCP-4 cell to cisplatin” value in assay [3] is reported as “about 63 fold”. For the same compound, the IC50 worked out at 1.77 ± 0.89 µM in [1] (setting [8]); 2.4 ± 1.05 µM in assay [1] (setting [9]); 2.16 ± 1.12 µM in [2] (setting [10]); 18.6 ± 2.83 µM in [2] (without compound 1, 96 hours). Besides, the “lowest T/C” value in the assay with PC-14/CDDP tumor (11th day, cisplatin 4 mg/kg i.v. with compound 1 3 mg/kg i.v.) amounted to 9.81%; with PC-14/CDDP tumor (11th day, cisplatin 4 mg/kg i.v., without compound 1), 20.64%; with PC-14/CDDP tumor (15th day, cisplatin 4 mg/kg i.v. with compound 1 3 mg/kg i.v.) it was 2.36%; in the assay with PC-14/CDDP tumor (15th day, cisplatin 4 mg/kg i.v., without compound 1), 8.47%; with PC-14 tumor (11th day, PC-14, cisplatin 4 mg/kg i.v. with compound 1 3 mg/kg i.v.) it was 9.76%; in the assay with PC-14 tumor (11th day, PC-14, cisplatin 4 mg/kg i.v., without compound 1), 13.33%. Besides, the “lowest T/C” value in the assay on PC-14 tumor (15th day, PC-14, cisplatin 4 mg/kg i.v. with compound 1 3 mg/kg i.v.) amounted to 6.75%; with PC-14 tumor (15th day, PC-14, cisplatin 4 mg/kg i.v., without compound 1), 10.52%. For the same compound, the “Tumor growth rate GR” value in the assay on PC-14/CDDP tumor (cisplatin 4 mg/kg i.v. on 7th, 15th day, without compound 1) was 478.43%; with PC-14/CDDP tumor (cisplatin 4 mg/kg i.v. with compound 1 3 mg/kg i.v. on 7th, 15th day) it was 190.52%; with PC-14 tumor (PC-14, cisplatin 4 mg/kg i.v. on 7th, 15th day, without compound 1) it was 874.30%; in the assay on PC-14 tumor (PC-14, cisplatin 4 mg/kg i.v. with compound 1 3 mg/kg i.v. on 7th, 15th day), 753.32%.

In the case of `COc1ccc([C@@H]2Sc3ccccc3N(CCN(C)C)C(=O)[C@@H]2OC(C)=O)cc1` [diltiazem], the “drugs that enhance any significant antitumor effect of cisplatin” value in assay [4] is listed as “none”. In assay [5], the “enhancement of antitumor effect of cisplatin” value (shortened to “enhancement”) is “do not exhibit any significant enhanced antitumor effect”.

`COC(=O)C1=C(C)NC(C)=C(C(=O)OC2CCCN(Cc3ccccc3)C2)C1c1cccc([N+](=O)[O-])c1` (centres unmarked) [benidipine]: the “drugs that enhance any significant antitumor effect of cisplatin” value in assay [4] is on record as “none”.

`COc1ccc(CCN(C)CCCC(C#N)(c2ccc(OC)c(OC)c2)C(C)C)cc1OC` (centres unmarked) [verapamil]: in assay [4], the “drugs that enhance any significant antitumor effect of cisplatin” value is listed as “none”. In addition, in assay [5], the “enhancement” value is on record as “do not exhibit any significant enhanced antitumor effect”.

For the compound `Clc1ccc(C(c2ccc(Cl)cc2)[n+]2ccn(CC(OCc3ccc(Cl)cc3Cl)c3ccc(Cl)cc3Cl)c2)cc1.[Cl-]` (centres unmarked) [calmidazilium], the “enhancement” value in assay [5] is on record as “do not exhibit any significant enhanced antitumor effect”.

On to `CN1CCN(CCCN2c3ccccc3Sc3ccc(C(F)(F)F)cc32)CC1` [trifluoperazine], for which, in assay [5], the “enhancement” value is listed as “do not exhibit any significant enhanced antitumor effect”.

For `COC(=O)C1=C(C#N)NC(C)=C(C(=O)OC(C)C)C1c1cccc([N+](=O)[O-])c1` (centres unmarked) [nilvadipine], in [4], the “drugs that enhance any significant antitumor effect of cisplatin” value is on record as “none”.

Take `COc1cccc2c1C(=O)c1c(O)c3c(c(O)c1C2=O)C[C@@](O)(C(=O)CO)C[C@@H]3O[C@H]1C[C@H](N)[C@H](O)[C@H](C)O1` [adriamycin]: the IC50 in assay [6] (K562, K562, with compound 1, n = 1, read-out: 50% cell growth inhibiting concentration (IC50) of adriamycin) was determined as 0.004 µM; in assay [6] (K562, K562, without compound 1, n = 1, read-out: 50% cell growth inhibiting concentration (IC50) of adriamycin), 0.008 µM; in [7] (with compound 1, n = 1), 0.166 µM; in [7] (without compound 1, n = 1) it was 1.15 µM.

Turning to `COc1ccc2c(c1)CN(C(=O)CCN1CCC(Cc3ccccc3)CC1)CCS2` [compound 1, 4-[3-(4-benzylpiperidine-1-yl)propionyl]-7-methoxy-2,3,4,5-tetrahydro-1,4-benzothiazepine], the “effect on resistance and sensitivity to anticancer drugs” value in assay [2] (cisplatin resistant lung cancer cell line PC-14/CDDP, compound 1 at 10 μm) was “shows the effect of reducing the resistance to and increasing the sensitivity to cisplatin, carboplatin, nedaplatin and taxol”. In addition, the “effect of inhibiting tumor growth together with cisplatin” value in the assay on PC-14/CDDP tumor (nude mice with PC-14/CDDP, compound 1 3 mg/kg with cisplatin 4 mg/kg i.v.) is “the effect of inhibiting tumor growth in the cisplatin resistant cancer cell line (PC-14/CDDP) was exhibited”. For the same compound, the “effect on resistance and sensitivity to adriamycin” value in assay [7] (adriamycin resistant cell line K562/ADM) is “shows the effect of reducing the resistance to and increasing the sensitivity to adriamycin”.

For `[NH2][Pt]1([NH2])[O]CC(=O)[O]1` [nedaplatin], the IC50 in assay [1] (setting [8]) came to 4.36 ± 1.53 µM; in assay [1] (setting [9]), 7.1 ± 1.53 µM; in assay [2] (setting [10]), 4.16 ± 1.28 µM; in assay [2] (without compound 1, 96 hours), 25.9 ± 8.12 µM.

For the compound `N.N.O=C([O-])C1(C(=O)[O-])CCC1.[Pt+2]` [carboplatin], the IC50 in [1] (setting [8]) came to 29.5 ± 11.3 µM; in assay [1] (setting [9]), 37.1 ± 10.8 µM; in assay [2] (setting [10]) it was 26.1 ± 7.78 µM; in [2] (without compound 1, 96 hours) it was 143 ± 39.1 µM.
